For two compounds, Activity, inhibition in vivo and inhibition results are on record in ChEMBL document CHEMBL5032522, “N-2-(phenylamino) benzamide derivatives as novel anti-glioblastoma agents: Synthesis and biological evaluation” (Eur J Med Chem, 2021).

Calls of active or inactive are those of the source. No cut-off for these calls is given here.

Data set [1] deals with U-87 MG. The data set is described as follows: Induction of cell cycle arrest in human U-87 MG assessed as decrease in G0/G1 phase accumulation at 10 uM incubated for 72 hrs by propidium iodide/RNase A staining based flow cytometry. It counts as functional. The conditions noted are these: U-87MG ATCC. In general terms: In flow cytometry, cells or beads pass a laser one at a time.

In data set [2] the test system is U-251. Nature of the data set: Induction of morphological changes in human U-251 cells assessed as membrane blebbing at 3.3 uM incubated for 72 hrs by Giemsa staining based light microscopic method. It counts as functional, cell-based.
Data set [3] in a line: Acute toxicity in Kunming mouse assessed as death at 300 mg/kg, ip administered as single dose observed every day for 14 days. Format: organism-based. The conditions noted are these: in vivo, 336 h, time 14 day.
Data set [4] deals with U-87 MG. The data set is described as follows: Antitumor activity against human U-87 MG cells xenografted in BALB/c nude mouse assessed as tumor growth inhibition at 20 mg/kg, ip bid measured every 3 days for 25 days relative to control. Format: functional, U-87MG ATCC. Particulars: 600 h, time 25 day, read-out: TGI.
Data set [5] has as its system U-87 MG. Nature of the data set: Antitumor activity against human U-87 MG cells xenografted in BALB/c nude mouse assessed as reduction in Ki67 expression in tumor at 20 mg/kg, ip bid measured every 3 days for 25 days by immunohistochemical analysis. Format: functional, organism-based. Particulars: U-87MG ATCC, time 25.0 day.
Data set [6] deals with U-87 MG. Nature of the data set: Antitumor activity against human U-87 MG cells xenografted in BALB/c nude mouse assessed as reduction in tumor weight at 20 mg/kg, ip bid measured every 3 days for 25 days. It counts as functional, organism-based. Particulars: U-87MG ATCC, time 25.0 day. (A xenograft is tissue or cells of one species grown in another, often human tumour cells in immunodeficient mice.)

For data set [7], the species on record is Rattus norvegicus. Nature of the data set: Upregulation of E-cadherin protein expression in Sprague-Dawley rat orthotopic model inoculated with C6 cells by Western blot analysis. Format: functional. (In general: Immunoblotting shows a protein as a band on a membrane.)
The species named for data set [8] is Rattus norvegicus. Nature of the data set: Downregulation of MMP-9 protein expression in Sprague-Dawley rat orthotopic model inoculated with C6 cells by Western blot analysis. It counts as functional.
A short description of data set [9]: Toxicity in BALB/c mouse xenografted with human U-87 MG cells assessed as reduction in body weight at 20 mg/kg, ip bid measured after 25 days. Format: organism-based. Particulars: in vivo, 600 h, time 25 day.
The test system of data set [10] is Rattus norvegicus. Nature of the data set: In vivo inhibition of STAT3 activation in ip dosed orthotopic Sprague-Dawley rat model inoculated with C6 cells assessed as decrease in p-STAT3 in tumor tissue by Western blot analysis. Format: functional, organism-based.

With `Cc1c(Cl)cccc1Nc1ccccc1C(=O)Nc1ccc2c(c1)OCO2`, the outcome in [1] and in [2] was Active.

For `COc1ccc(NC(=O)c2ccccc2Nc2cccc(Cl)c2C)cc1`, the Activity entry in data set [3] and in data set [9] was “Non-Toxic” throughout. The result in data set [1], in data set [5], in data set [2], in [6], in data set [7] and in data set [8] was Active. The inhibition in vivo at 20 mg/kg in data set [4] is 69.4%. Further, the inhibition entry in data set [10] is “Active”.
